From the supplement of paper PMC10307832

Tests used:
Test in all cases: relative viability (nuclei count vs DMSO), 5 days (fraction); higher = more cells survive
Idelalisib + OSI-027 = compound: CC[C@H](Nc1ncnc2[nH]cnc12)c1nc2cccc(F)c2c(=O)n1-c1ccccc1 [Idelalisib] + COc1cccc2cc(-c3nc([C@H]4CC[C@H](C(=O)O)CC4)n4ncnc(N)c34)[nH]c12 [OSI-027] (partner 0.5 µM)
Method in brief: (§1)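 Relative viability is defined as nuclei in treated wells over nuclei in vehicle wells. Duplicate plates were run and medians reported. Lung cancer cell lines in 1536-well plates were dosed by pin tool one day after seeding, with one drug or with a fixed anchor-drug dose plus five library-drug doses (not always all listed) in √10 steps, and nuclei were counted after 5 days.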

Pemetrexed + Vorinostat = compound: Nc1nc2[nH]cc(CCc3ccc(C(=O)N[C@@H](CCC(=O)O)C(=O)O)cc3)c2c(=O)[nH]1 [Pemetrexed] + O=C(CCCCCCC(=O)Nc1ccccc1)NO [Vorinostat] (partner 1 µM)
Method in brief: as §1

Idelalisib + Decitabine = compound: CC[C@H](Nc1ncnc2[nH]cnc12)c1nc2cccc(F)c2c(=O)n1-c1ccccc1 [Idelalisib] + Nc1ncn([C@H]2C[C@H](O)[C@@H](CO)O2)c(=O)n1 [Decitabine] (partner 2 µM)
Method in brief: as §1

Idelalisib + Luminespib = compound: CC[C@H](Nc1ncnc2[nH]cnc12)c1nc2cccc(F)c2c(=O)n1-c1ccccc1 [Idelalisib] + CCNC(=O)c1noc(-c2cc(C(C)C)c(O)cc2O)c1-c1ccc(CN2CCOCC2)cc1 [Luminespib] (partner 0.01 µM)
Method in brief: as §1

Cell Line UMC-11 has a relative viability (Idelalisib + OSI-027; first compound 0.04 µM) of 0.429, a relative viability (Idelalisib + OSI-027; first compound 0.1265 µM) of 0.491 and a relative viability (Idelalisib + OSI-027; first compound 0.4 µM) of 0.542. The relative viability (Idelalisib + OSI-027; first compound 1.265 µM) was 0.513, the relative viability (Idelalisib + OSI-027; first compound 4 µM) was 0.42 and the relative viability (Pemetrexed + Vorinostat; first compound 0.002 µM) was 0.425. For the same cell line, the relative viability (Pemetrexed + Vorinostat; first compound 0.006325 µM) was 0.355, the relative viability (Pemetrexed + Vorinostat; first compound 0.02 µM) was 0.44 and the relative viability (Pemetrexed + Vorinostat; first compound 0.06325 µM) was 0.347. The relative viability (Pemetrexed + Vorinostat; first compound 0.2 µM) was 0.35, the relative viability (Idelalisib + Decitabine; first compound 0.04 µM) was 0.698 and the relative viability (Idelalisib + Decitabine; first compound 0.1265 µM) was 0.595. The relative viability (Idelalisib + Decitabine; first compound 0.4 µM) was 0.577, the relative viability (Idelalisib + Decitabine; first compound 1.265 µM) was 0.609 and the relative viability (Idelalisib + Decitabine; first compound 4 µM) was 0.333. The relative viability (Idelalisib + Luminespib; first compound 0.04 µM) was 0.902, the relative viability (Idelalisib + Luminespib; first compound 0.1265 µM) was 1.13 and the relative viability (Idelalisib + Luminespib; first compound 0.4 µM) was 1.08. The relative viability (Idelalisib + Luminespib; first compound 1.265 µM) was 1.03 and the relative viability (Idelalisib + Luminespib; first compound 4 µM) was 0.949.
